Data from patent US9464076B2, “Benzothiophene derivative” (Daiichi Sankyo Company, Limited, priority 2013, dated 2016).
Counter-ions that a name gives are not always drawn.

Columns and labels:
PDE10A = PDE10A (Homo sapiens (Human), UniProt Q9Y233); assay: Measurement of PDE10A inhibitory activity-2 (PDE10A fraction prepared from MOLT-4 cells); type: biochemical; conditions: PDE10A fraction from MOLT-4 cells (peak around 250 mM NaCl)
In short: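 Enzyme source was a PDE10A-containing fraction from MOLT-4 cell soluble extract, resolved by HiTrap Q anion exchange with a 0–0.8 M NaCl gradient and selected by cAMP-hydrolysing activity. IC50 determined with this fraction by the same procedure as the preceding PDE10A assay.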

Male C57BL/6 Cr mice = assay: Test on suppression of phencyclidine-induced hyperlocomotion in mice; type: in vivo, mouse; conditions: Mus musculus, po, 1 h, locomotor activity, test compound 10 mg/kg oral, phencyclidine 5 mg/kg s.c. approx. 1 hour later, measured for 1 hour
Protocol: Male C57BL/6 Cr mice (Japan SLC, Inc.) (8 weeks old) were used in the experiment. A test compound was suspended at 1 mg/mL in a 0.5% hydroxypropylcellulose solution to prepare a suspension for administration. The suspension of the test compound or a solvent (0.5% hydroxypropylcellulose solution) was orally administered at a dose of 10 mL/kg to each mouse. After the administration, the mouse was immediately placed in a locomotor activity measurement apparatus (Muromachi Kikai Co., Ltd., locomotor activity measurement system SUPERMEX). Approximately 1 hour later, phencyclidine (5 mg/10 mL/kg) or a solvent (10 mL/kg saline) was subcutaneously administered to the mouse. The locomotor activity was measured from immediately after the subcutaneous administration to 1 hour later.
Percent inhibition exceeding 100 means that when the activity of the phencyclidine administration control group was defined as 100, the activity of the group given a test compound was lower than that of the solvent administration control group.

PDE10A, sequence (Q9Y233 whole entry): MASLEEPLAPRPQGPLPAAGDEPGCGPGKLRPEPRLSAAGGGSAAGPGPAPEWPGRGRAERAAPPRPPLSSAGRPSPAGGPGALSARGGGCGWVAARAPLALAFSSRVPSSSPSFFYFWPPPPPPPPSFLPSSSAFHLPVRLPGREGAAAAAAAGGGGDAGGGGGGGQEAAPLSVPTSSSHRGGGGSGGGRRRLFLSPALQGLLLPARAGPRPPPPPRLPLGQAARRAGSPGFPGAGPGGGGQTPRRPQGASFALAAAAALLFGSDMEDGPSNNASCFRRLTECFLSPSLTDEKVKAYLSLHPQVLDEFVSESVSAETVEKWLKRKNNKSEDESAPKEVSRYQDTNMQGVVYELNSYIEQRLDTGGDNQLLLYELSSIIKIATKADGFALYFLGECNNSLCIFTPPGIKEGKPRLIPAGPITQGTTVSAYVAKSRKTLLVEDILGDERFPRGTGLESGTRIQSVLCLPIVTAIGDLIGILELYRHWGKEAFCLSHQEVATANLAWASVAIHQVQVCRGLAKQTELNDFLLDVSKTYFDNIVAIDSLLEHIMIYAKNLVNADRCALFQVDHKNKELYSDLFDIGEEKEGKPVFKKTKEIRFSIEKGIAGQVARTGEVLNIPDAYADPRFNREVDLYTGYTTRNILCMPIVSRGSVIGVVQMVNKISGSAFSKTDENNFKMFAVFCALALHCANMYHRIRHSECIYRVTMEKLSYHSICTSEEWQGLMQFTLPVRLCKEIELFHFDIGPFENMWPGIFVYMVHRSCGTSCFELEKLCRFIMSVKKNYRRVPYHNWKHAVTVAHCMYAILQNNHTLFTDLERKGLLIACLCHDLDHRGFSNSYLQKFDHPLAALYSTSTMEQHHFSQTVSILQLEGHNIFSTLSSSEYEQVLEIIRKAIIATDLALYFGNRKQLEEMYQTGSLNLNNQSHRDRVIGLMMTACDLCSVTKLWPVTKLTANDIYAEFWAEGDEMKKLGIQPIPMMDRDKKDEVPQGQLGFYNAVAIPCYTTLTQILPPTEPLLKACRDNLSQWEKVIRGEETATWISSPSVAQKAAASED

| IC50 (PDE10A) | Structure (SMILES) | inhibition in vivo at 10 mg/kg (Male C57BL/6 Cr mice) |
| --- | --- | --- |
| 2.1 nM | COCc1ccc(C(C)=O)c2sc(C(=O)Nc3cc(CN4CCOCC4)c4ccccc4n3)c(C)c12 [Example 44, 7-Acetyl-4-(methoxymethyl)-3-methyl-N-(4-(morpholinomethyl)quinolin-2-yl)benzo[b]thiophene-2-carboxamide] | 104% |
| 0.76 nM | [2H]C([2H])([2H])OCc1ccc(C(C)=O)c2sc(C(=O)Nc3ccc4c(COC)cccc4n3)c(C)c12 [Example 118, 7-Acetyl-4-((^2H3)methoxymethyl)-N-(5-(methoxymethyl)quinolin-2-yl)-3-methylbenzo[b]thiophene-2-carboxamide] | 77% |
| 0.49 nM | COCc1ccc(C(C)=O)c2sc(C(=O)Nc3cc(CN4CC(O)C4)c4ccccc4n3)c(C)c12 [Example 47, 7-Acetyl-N-(4-((3-hydroxyazetidin-1-yl)methyl)quinolin-2-yl)-4-(methoxymethyl)-3-methylbenzo[b]thiophene-2-carboxamide dihydrochloride] | 73% |
| 0.53 nM | COCc1ccc(C(C)=O)c2sc(C(=O)Nc3ccc4c(C(C)O)cccc4n3)c(C)c12 (stereo not drawn) [Example 76, 7-Acetyl-N-(5-(1-hydroxyethyl)quinolin-2-yl)-4-(methoxymethyl)-3-methylbenzo[b]thiophene-2-carboxamide] | 102% |
| 1.8 nM | COCc1ccc(C(C)=O)c2sc(C(=O)Nc3cc(C(C)(C)O)c4ccccc4n3)c(C)c12 [Example 26, 7-Acetyl-N-(4-(2-hydroxypropan-2-yl)quinolin-2-yl)-4-(methoxymethyl)-3-methylbenzo[b]thiophene-2-carboxamide] | 84% |
| 0.54 nM | COCc1ccc(C(C)=O)c2sc(C(=O)Nc3ccc4c(COCCO)cccc4n3)c(C)c12 [Example 72, 7-Acetyl-N-(5-((2-hydroxyethoxy)methyl)quinolin-2-yl)-4-(methoxymethyl)-3-methylbenzo[b]thiophene-2-carboxamide hydrochloride] | 83% |
| 0.26 nM | COCc1ccc(C(C)=O)c2sc(C(=O)Nc3ccc4c(C(=O)N(C)C)cccc4n3)c(C)c12 [Example 97, 2-(7-Acetyl-4-(methoxymethyl)-3-methylbenzo[b]thiophene-2-carboxamido)-N,N-dimethylquinoline-5-carboxamide] | 50% |
| 0.8 nM | COCc1ccc(C(C)=O)c2sc(C(=O)Nc3cc(CN4CCN(C)CC4)c4ccccc4n3)c(C)c12 [Example 125, 7-Acetyl-4-(methoxymethyl)-3-methyl-N-(4-((4-methylpiperazin-1-yl)methyl)quinolin-2-yl)benzo[b]thiophene-2-carboxamide] | 86% |
| 0.39 nM | COCc1ccc(C(C)=O)c2sc(C(=O)Nc3ccc4c(CN5CC(O)C5)cccc4n3)c(C)c12 [Example 65, 7-Acetyl-N-(5-((3-hydroxyazetidin-1-yl)methyl)quinolin-2-yl)-4-(methoxymethyl)-3-methylbenzo[b]thiophene-2-carboxamide dihydrochloride] | 37% |
| 0.15 nM | [2H]C([2H])(OC)c1ccc(C(C)=O)c2sc(C(=O)Nc3cc(C([2H])([2H])N4CC[C@@H](O)C4)c4ccccc4n3)c(C)c12 [Example 116, (R)-7-Acetyl-N-(4-((3-hydroxypyrrolidin-1-yl)(^2H2)methyl)quinolin-2-yl)-4-(methoxy(^2H2)methyl)-3-methylbenzo[b]thiophene-2-carboxamide] | 180% |
| 1.6 nM | COCc1ccc(C(C)=O)c2sc(C(=O)Nc3cc(N4CCN(C)CC4)c4ccccc4n3)c(C)c12 [Example 57, 7-Acetyl-4-(methoxymethyl)-3-methyl-N-(4-(4-methylpiperazin-1-yl)quinolin-2-yl)benzo[b]thiophene-2-carboxamide] | 86% |
| 0.5 nM | COCc1ccc(C(C)=O)c2sc(C(=O)Nc3cc(CN4CC[C@@H](F)C4)c4ccccc4n3)c(C)c12 [Example 45, (R)-7-Acetyl-N-(4-((3-fluoropyrrolidin-1-yl)methyl)quinolin-2-yl)-4-(methoxymethyl)-3-methylbenzo[b]thiophene-2-carboxamide] | 97% |
| 0.11 nM | COCc1ccc(C(C)=O)c2sc(C(=O)Nc3ccc4c(C(=O)N5CC(O)C5)cccc4n3)c(C)c12 [Example 101, 7-Acetyl-N-(5-((3-hydroxyazetidin-1-yl)carbonyl)quinolin-2-yl)-4-(methoxymethyl)-3-methylbenzo[b]thiophene-2-carboxamide] | 35% |
| 1.1 nM | COCc1ccc(C(C)=O)c2sc(C(=O)Nc3ccc4c(COC(=O)CN)cccc4n3)c(C)c12 [Example 85, (2-(7-Acetyl-4-(methoxymethyl)-3-methylbenzo[b]thiophene-2-carboxamido)quinolin-5-yl)methyl-2-aminoacetate] | 85% |
| 0.57 nM | [2H]C([2H])([2H])OCc1ccc(C(C)=O)c2sc(C(=O)Nc3ccc4c(C(=O)N5CC(OC)C5)cccc4n3)c(C)c12 [Example 121, 7-Acetyl-N-(5-((3-methoxyazetidin-1-yl)carbonyl)quinolin-2-yl)-4-((^2H3)methoxymethyl)-3-methylbenzo[b]thiophene-2-carboxamide] | 59% |
| 0.35 nM | COCc1ccc(C(C)=O)c2sc(C(=O)Nc3cc(CN4CCC(O)CC4)c4ccccc4n3)c(C)c12 [Example 36, 7-Acetyl-N-(4-((4-hydroxypiperidin-1-yl)methyl)quinolin-2-yl)-4-(methoxymethyl)-3-methylbenzo[b]thiophene-2-carboxamide] | 69% |
| 1.2 nM | COCc1ccc(C(C)=O)c2sc(C(=O)Nc3ccc4c(CN5CC(OC)C5)cccc4n3)c(C)c12 [Example 66, 7-Acetyl-N-(5-((3-methoxyazetidin-1-yl)methyl)quinolin-2-yl)-4-(methoxymethyl)-3-methylbenzo[b]thiophene-2-carboxamide] | 91% |
| 1.1 nM | COCc1ccc(C(C)=O)c2sc(C(=O)Nc3ccc4c(COC(=O)[C@H](C)N)cccc4n3)c(C)c12 [Example 86, (S)-(2-(7-Acetyl-4-(methoxymethyl)-3-methylbenzo[b]thiophene-2-carboxamido)quinolin-5-yl)methyl-2-aminopropanoate] | 88% |
| 0.054 nM | COCc1ccc(C(C)=O)c2sc(C(=O)Nc3cc(N)c4ccccc4n3)c(C)c12 [Example 54, 7-Acetyl-N-(4-aminoquinolin-2-yl)-4-(methoxymethyl)-3-methylbenzo[b]thiophene-2-carboxamide] | 68% |
| 0.92 nM | CCc1c(C(=O)Nc2cc(CN3CC[C@@H](O)C3)c3ccccc3n2)sc2c(C(C)=O)ccc(COC)c12 [Example 42, (R)-7-Acetyl-3-ethyl-N-(4-((3-hydroxypyrrolidin-1-yl)methyl)quinolin-2-yl)-4-(methoxymethyl)benzo[b]thiophene-2-carboxamide] | 85% |
| 0.75 nM | COCCOCc1cccc2nc(NC(=O)c3sc4c(C(C)=O)ccc(COC)c4c3C)ccc12 [Example 71, 7-Acetyl-N-(5-((2-methoxyethoxy)methyl)quinolin-2-yl)-4-(methoxymethyl)-3-methylbenzo[b]thiophene-2-carboxamide hydrochloride] | 89% |
| 7.1 nM | COCc1ccc(C(C)=O)c2sc(C(=O)Nc3ccc4c(COC(=O)[C@@H](N)C(C)C)cccc4n3)c(C)c12 [Example 84, (S)-(2-(7-Acetyl-4-(methoxymethyl)-3-methylbenzo[b]thiophene-2-carboxamido)quinolin-5-yl)methyl-2-amino-3-methylbutanoate] | 92% |

| Structure (SMILES) | IC50 (PDE10A) | inhibition in vivo at 10 mg/kg (Male C57BL/6 Cr mice) |
| --- | --- | --- |
| COCc1ccc(C(C)=O)c2sc(C(=O)Nc3ccc4c(COP(=O)(O)O)cccc4n3)c(C)c12 [Example 87, (2-(7-Acetyl-4-(methoxymethyl)-3-methylbenzo[b]thiophene-2-carboxamido)quinolin-5-yl)methyl dihydrogen phosphate hydrochloride] | 0.6 nM | 92% |
| COCc1ccc(C(=O)C(C)C)c2sc(C(=O)Nc3cc(CN4CC[C@@H](O)C4)c4ccccc4n3)c(C)c12 [Example 59, (R)—N-(4-((3-Hydroxypyrrolidin-1-yl)methyl)quinolin-2-yl)-7-isobutyryl-4-(methoxymethyl)-3-methylbenzo[b]thiophene-2-carboxamide dihydrochloride] | 0.31 nM | 67% |
